Consider 21 compounds from patent US20020173468A1, “MODIFIED CYTOSTATIC AGENTS” (priority 1996, published 2002).

What all share (assay type): cell-based
Assay [1] concerns B16F10 mouse melanoma cell line. As to the kind of experiment: Growth inhibition test (MTT) for cytotoxic properties, B16F10. Particulars: B16F10 cells. On the procedure:
(§1) 1. Growth Inhibition Test for the Determination of Cytotoxic Properties
(§2) They were then trypsinized and taken up in RPMI plus 10% FCS to give a cell count of 50,000 cells/ml. 100 μl of cell suspension/well were added to a 96 microwell plate and incubated for 1 day at 37° C. in a CO2 incubator. A further 100 μl of RPMI medium and 1 μl of DMSO were then added with the test substances. The growth was checked after day 3 and day 6. To do this, 40 μl of MTT solution (3-(4,5-dimethylthiazol-2-yl)-2,5-diphenyl-tetrazolin bromide) were added to each microwell at a starting concentration of 5 mg/ml of H2O. Incubation was carried out at 37° C. for 5 hours in the CO2 incubator. The medium was then aspirated and 100 μl of i-propanol/well were added. After shaking for 30 min with 100 μl of H2O, the extinction was measured at 540 nm using a Titertek Multiskan MCC/340 (flow).
(§3) The cytotoxic action is indicated in Table 1 as an IC50 value in each case for the SW 480 and HT 29 and B16F10 cell lines: […]

Assay [2] deals with mouse bone marrow stem cells. As to the kind of experiment: Inhibition of the CSF-induced proliferation of mouse bone marrow stem cells (colony formation). Particulars: recombinant murine GM-CSF, 7 days; for IC50: Mus musculus, 168 h. On the procedure: 2. Haematopoietic Activity of Conjugates in Comparison with the Basic Active Compound
Bone marrow cells were rinsed from mouse femurs. 10^5 cells were incubated in McCoy 5A medium (0.3% agar) together with recombinant murine GM-CSF (Genzyme; stem cell colony formation) and the substances (10^−4 to 100 μg/ml) at 37° C. and 7% CO2. 7 days later, the colonies ([…]50 cells) and clusters (17-50 cells) were counted.

Assay [3] has as its system SW 480 human colonic tumour cell line. Description: Growth inhibition test (MTT) for cytotoxic properties, SW 480. Particulars: SW 480 cells. On the procedure: as §1, §2, §3
Assay [4] concerns HT 29 human colonic tumour cell line. As to the kind of experiment: Growth inhibition test (MTT) for cytotoxic properties, HT 29. The following applies: HT 29 cells. On the procedure:
as §1, §2, §3

Where a name gives a salt, the structure may show the parent alone.

As a reminder, the IC50 is the point on the concentration scale where inhibition reaches its midpoint. For the compound `Cl.NCCCCC(NC(=S)Nc1ccc(O)cc1)C(=O)NC1C=CCC2CN(c3c(F)cc4c(=O)c(C(=O)O)cn(C5CC5)c4c3Cl)CC21` (racemic) [2.4), N-[N^α-(4-Hydroxy-phenylamino-thiocarbonyl)-lysyl]-quinolone-a, hydrochloride], the results for the IC50 in assay [1], in assay [3] and in assay [4] were 1000 nM, 800 nM and 900 nM, respectively. In assay [2], the “IC50, inhibition of the CSF-induced proliferation of mouse bone marrow stem cells” value stood at 60.0 ng/mL.
With `N[C@@H]1C=CC[C@@H]2CN(c3c(F)cc4c(=O)c(C(=O)O)cn(C5CC5)c4c3Cl)C[C@@H]21` (racemic) [Quinolone-a, 7-[(3aRS, 4RS, 7aSR)-4-amino-1,3,3a,4,7,7a-hexahydro-iso-indol-2-yl]-8-chloro-1-cyclopropyl-6-fluoro-1,4-dihydro-4-oxo-3-quinolinecarboxylic acid, reference compound], the IC50 in assay [2] is 0.2 ng/mL.
Consider `CCC1(OC(=O)C(C)NC(=O)C(CCCCNC(=S)Nc2ccc(O)cc2)NC(=S)Nc2ccc(O)cc2)C(=O)OCc2c1cc1n(c2=O)Cc2cc3ccccc3nc2-1` (stereo not drawn) [4.9), 20-O-[N^α,N^ε-bis-(4-Hydroxy-phenylamino-thiocarbonyl)-lysyl-alanyl]-camptothecin], for which the results for the IC50 in assay [1], in assay [3] and in assay [4] were 200 nM, 20 nM and 15 nM, respectively. Also, the “IC50, inhibition of the CSF-induced proliferation of mouse bone marrow stem cells” value in assay [2] was 22 ng/mL.
With `CC[C@@]1(OC(=O)[C@@H](NC(=O)[C@H](CCCCN)NC(=S)Nc2cccc(O)c2)C(C)C)C(=O)OCc2c1cc1n(c2=O)Cc2cc3ccccc3nc2-1` [4.12), 20-O-[N^α-(3-Hydroxy-phenylamino-thiocarbonyl)-lysyl-valyl]-camptothecin, hydrochloride], the IC50 came to 200 nM in assay [1], 40 nM in assay [3] and 30 nM in assay [4].
Take `CC[C@@]1(OC(=O)C(NC(=O)C(CCCCN)NC(=S)Nc2ccccc2O)C(C)C)C(=O)OCc2c1cc1n(c2=O)Cc2cc3ccccc3nc2-1` (stereo partly drawn) [4.13), 20-O-[N^α-(2-Hydroxy-phenylamino-thiocarbonyl)-lysyl-valyl]-camptothecin, hydrochloride]: the IC50 stood at 200 nM in assay [1], 60 nM in assay [3] and 40 nM in assay [4].
For `CCC1(OC(=O)[C@@H](NC(=O)[C@H](CCCCN)NC(=S)Nc2ccc(OC)cc2)C(C)C)C(=O)OCc2c1cc1n(c2=O)Cc2cc3ccccc3nc2-1` (stereo partly drawn) [4.14), 20-O-[N^α-(4-Methoxy-phenylamino-thiocarbonyl)-lysyl-valyl]-camptothecin, hydrochloride], the half-inhibitory concentration (IC50) in assay [1] amounted to 750 nM; in assay [3] it was 160 nM; in assay [4], 75 nM.
Turning to `CCC1(OC(=O)C(NC(=O)C(CCCCN)NC(=S)Nc2cccc(OC)c2)C(C)C)C(=O)OCc2c1cc1n(c2=O)Cc2cc3ccccc3nc2-1` (stereo not drawn) [4.15), 20-O-[N^α-(3-Methoxy-phenylamino-thiocarbonyl)-lysyl-valyl]-camptothecin, hydrochloride], the IC50 in assay [1] was determined as 200 nM; in assay [3] it was 90 nM; in assay [4] it was 60 nM.
Consider `CCC1(OC(=O)C(NC(=O)C(CCCCN)NC(=S)Nc2ccc([N+](=O)[O-])cc2)C(C)C)C(=O)OCc2c1cc1n(c2=O)Cc2cc3ccccc3nc2-1` (stereo not drawn) [4.16), 20-O-[N^α-(4-Nitro-phenylamino-thiocarbonyl)-lysyl-valyl]-camptothecin, hydrochloride], for which the IC50 in assay [1] came to 600 nM; in assay [3] it was 150 nM; in assay [4] it was 120 nM.
In the case of `CCC1(OC(=O)C(NC(=O)C(CCCCN)NC(=S)Nc2cccc([N+](=O)[O-])c2)C(C)C)C(=O)OCc2c1cc1n(c2=O)Cc2cc3ccccc3nc2-1` (stereo not drawn) [4.17), 20-O-[N^α-(3-Nitro-phenylamino-thiocarbonyl)-lysyl-valyl]-camptothecin, hydrochloride], the results for the IC50 in assay [1], in assay [3] and in assay [4] were 800 nM, 300 nM and 170 nM, respectively.
For `CCC1(OC(=O)C(NC(=O)C(CCCCN)NC(=S)Nc2ccc(N)cc2)C(C)C)C(=O)OCc2c1cc1n(c2=O)Cc2cc3ccccc3nc2-1` (stereo not drawn) [4.18), 20-O-[N^α-(4-Amino-phenylamino-thiocarbonyl)-lysyl-valyl]-camptothecin, hydrochloride], the results for the half-maximal inhibitory concentration (IC50) in assay [1], in assay [3] and in assay [4] were 400 nM, 300 nM and 120 nM, respectively.
Turning to `CCC1(OC(=O)C(NC(=O)C(Cc2c[nH]cn2)NC(=S)Nc2ccc(O)cc2)C(C)C)C(=O)OCc2c1cc1n(c2=O)Cc2cc3ccccc3nc2-1` (stereo not drawn) [4.19), 20-O-[N^α-(4-Hydroxy-phenylamino-thiocarbonyl)-histidyl-valyl]-camptothecin, hydrochloride], the results for the IC50 in assay [1], in assay [3] and in assay [4] were 400 nM, 80 nM and 40 nM, respectively.
`CCC1(OC(=O)C(CC(C)C)NC(=O)C(CCCCN)NC(=S)Nc2ccc(O)cc2)C(=O)OCc2c1cc1n(c2=O)Cc2cc3ccccc3nc2-1` (stereo not drawn) [4.20), 20-O-[N^α-(4-Hydroxy-phenylamino-thiocarbonyl)-lysyl-leucyl]-camptothecin, hydrochloride]: the figures for the IC50 in assay [1], in assay [3] and in assay [4] were 300 nM, 70 nM and 60 nM, respectively.
Take `CCC1(OC(=O)C(NC(=O)C(CCCCNC(=S)Nc2ccc(O)cc2)NC(=S)Nc2ccc(O)cc2)C(C)C)C(=O)OCc2c1cc1n(c2=O)Cc2cc3ccccc3nc2-1` (stereo not drawn) [4.21), 20-O-{[N^α-N^ε-bis-(4-Hydroxy-phenylamino-thiocarbonyl)]-lysyl-valyl}-camptothecin, hydrochloride]: the IC50 in assay [1] was 3000 nM; in assay [3], 700 nM; in assay [4] it was 300 nM.
With `CC[C@@]1(OC(=O)C(CC(=O)O)NC(=O)C(CCCCNC(=S)Nc2ccc(O)cc2)NC(=S)Nc2ccc(O)cc2)C(=O)OCc2c1cc1n(c2=O)Cc2cc3ccccc3nc2-1` (stereo partly drawn) [4.22), 20-O-[N^α,N^ε-bis-(4-Hydroxy-phenylamino-thiocarbonyl)-lysyl-aspartyl]-camptothecin, sodium salt], the IC50 in assay [1] worked out at 100 nM; in assay [3], 40 nM; in assay [4], 40 nM.
Regarding `CCC1(OC(=O)C(CO)NC(=O)C(CCCCNC(=S)Nc2ccc(O)cc2)NC(=S)Nc2ccc(O)cc2)C(=O)OCc2c1cc1n(c2=O)Cc2cc3ccccc3nc2-1` (stereo not drawn) [4.23), 20-O-[N^α,N^ε-bis-(4-Hydroxy-phenylamino-thiocarbonyl)-lysyl-seryl]-camptothecin], the IC50 is 150 nM in assay [1], 80 nM in assay [3] and 70 nM in assay [4].
With `CCc1c2c(nc3ccccc13)-c1cc3c(c(=O)n1C2)COC(=O)C3(CC)OC(=O)C(C)NC(=O)C(CCCCNC(=S)Nc1ccc(O)cc1)NC(=S)Nc1ccc(O)cc1` (stereo not drawn) [5.1), 7-Ethyl-20-O-[N^α,N^ε-bis-(4-hydroxy-phenylamino-thiocarbonyl)-lysyl-alanyl]-camptothecin], the IC50 worked out at 50 nM in assay [1], 25 nM in assay [3] and 20 nM in assay [4].
In the case of `CCc1c2c(nc3ccccc13)-c1cc3c(c(=O)n1C2)COC(=O)C3(CC)OC(=O)C(NC(=O)C(CCCCN)NC(=S)Nc1ccc(O)cc1)C(C)C` (stereo not drawn) [5.2), 7-Ethyl-20-O-[N^α-(4-hydroxy-phenylamino-thiocarbonyl)-lysyl-valyl]-camptothecin, hydrochloride], the values for the IC50 in assay [1], in assay [3] and in assay [4] were 900 nM, 500 nM and 300 nM, respectively.
As for `CCC1(OC(=O)[C@H](CC(C)C)NC(=O)[C@H](CCCCN)NC(=S)Nc2ccc(O)cc2)C(=O)OCc2c1cc1n(c2=O)Cc2cc3cc4c(cc3nc2-1)OCO4` (stereo partly drawn) [6), 10,11-(Methylenedioxy)-20-O-[N^α-(4-hydroxy-phenylaminothio-carbonyl)-lysyl-leucyl]-camptothecin, hydrochloride], the half-maximal inhibitory concentration (IC50) in assay [1] amounted to 15 nM; in assay [3], 5 nM; in assay [4] it was 3 nM.
Regarding `CCC1(O)C(=O)OCc2c1cc1n(c2=O)Cc2c-1nc1ccccc1c2COC(=O)[C@@H](NC(=O)[C@H](CCCCN)NC(=S)Nc1ccc(O)cc1)C(C)C` (stereo partly drawn) [7), 7-[N^α-(4-Hydroxy-phenylamino-thiocarbonyl)-lysyl-valyloxymethyl]-camptothecin, hydrochloride], the IC50 in assay [1] was determined as 1000 nM; in assay [3] it was 60 nM; in assay [4], 80 nM.
For `CCc1c2c(nc3ccc(O)cc13)-c1cc3c(c(=O)n1C2)COC(=O)C3(CC)OC(=O)[C@@H](NC(=O)[C@H](CCCCN)NC(=S)Nc1ccc(O)cc1)C(C)C` (stereo partly drawn) [8), 7-Ethyl-10-hydroxy-20-O-[N^α-(4-hydroxy-phenylamino-thiocarbonyl)-lysyl-valyl]-camptothecin, hydrochloride], the IC50 in assay [1] is 3000 nM; in assay [3] it was 150 nM; in assay [4], 200 nM.
`CC[C@@]1(O)C(=O)OCc2c1cc1n(c2=O)Cc2cc3ccccc3nc2-1` [Camptothecin, 20(S)-Camptothecin, reference compound]: in assay [2], the IC50 was determined as 0.4 ng/mL.
